According to patent US20230399312A1, “SUBSTITUTED PYRIMIDINES AND METHODS OF USE” (THERAVANCE BIOPHARMA R&D IP, LLC, priority 2020, published 2023):

Tests used:
[1] = test system: TGF-β-stimulated SMAD3 phosphorylation in BEAS-2B cells; experiment: Cellular ALK5 potency assay, inhibition of TGF-β stimulated pSMAD3 formation in BEAS-2B cells; format: cell-based; conditions: Homo sapiens, pSMAD3, TGF-β 10 ng/mL, read-out: BEAS2B pIC50 (converted)
Protocol: The potency of compounds of the present disclosure for inhibition of TGF-β-stimulated SMAD3 phosphorylation was measured in BEAS-2B cells, a human lung epithelial cell line. TGF-β signals through activin receptor-like kinase 5 (ALK5) immediately prior to SMAD3 phosphorylation.
BEAS-2B cells were grown using 50% DMEM (Life Technologies) and 50% F-12 (Life Technologies) media, supplemented with 10% Fetal Bovine Serum (ATCC), 25 mM HEPES (Life Technologies), and 1×Pen-Strep (Life Technologies). Cells were cultured in a humidified incubator set at 37° C., 5% CO2, and trypsonized using 0.25% Trypsin with 0.5% polyvinylpyrrolidone (PVP).
For the assay, BEAS-2B cells were seeded at 7,500 cells/well (25 μL/well) in a 384-well plate and cultured overnight. Before dosing, growth media was aspirated and the wells were rinsed with HBSS Buffer (HBSS with Calcium and Magnesium, Life Technologies) supplemented with 25 mM HEPES (Life Technologies) and 1% Bovine Serum Albumin (Roche). Compounds were serially diluted in DMSO, then further diluted with supplemented HBSS Buffer (50 μL/well) to create a compound plate 3× of the final assay concentration, at 0.3% DMSO. The diluted compounds were then added to the cells (8 μL/well) and incubated at 37° C., 5% CO2 for 1 hour. After the compound incubation, TGF-β (R&D Systems) reconstituted in supplemented HBSS Buffer was added to the cells ([…], final concentration 10 ng/mL) and incubated for a further 30 minutes, after which the cells were immediately lysed with AlphaLISA lysis buffer (PerkinElmer). AlphaLISA Acceptor and Detector beads (PerkinElmer) were added 2 hours apart, then incubated overnight to be read the next day. The potency of the compound was determined through analysis of dose-dependent quantified changes in pSMAD3 signal from baseline (non-compound treated TGF-β stimulated cells). Data are expressed as pIC50 (negative decadic logarithm IC50) values.

[2] = target: T1, recombinant human ALK5 (TGF-βR1) protein (Homo sapiens, UniProt P36897); experiment: Biochemical ALK5 (TGF-βR1) assay to measure pKi (LANCE Ultra ULight kinase assay); conditions: apparent pKi, converted from pIC50 by Cheng-Prusoff
T1 construct: purchased Life Technologies PR9075A
T1 sequence (P36897 34-503): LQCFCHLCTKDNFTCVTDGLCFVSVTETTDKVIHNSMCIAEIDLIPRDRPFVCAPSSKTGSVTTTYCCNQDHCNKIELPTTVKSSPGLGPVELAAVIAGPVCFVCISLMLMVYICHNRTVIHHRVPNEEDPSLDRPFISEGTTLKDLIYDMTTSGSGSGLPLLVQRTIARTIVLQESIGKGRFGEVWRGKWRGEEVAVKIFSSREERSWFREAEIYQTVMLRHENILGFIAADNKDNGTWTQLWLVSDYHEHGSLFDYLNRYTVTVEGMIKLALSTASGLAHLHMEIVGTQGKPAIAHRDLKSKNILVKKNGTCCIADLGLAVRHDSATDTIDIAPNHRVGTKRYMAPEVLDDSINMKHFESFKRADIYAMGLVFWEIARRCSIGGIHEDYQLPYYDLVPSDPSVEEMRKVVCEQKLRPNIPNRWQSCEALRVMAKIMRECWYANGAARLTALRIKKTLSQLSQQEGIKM
Protocol: The assays were performed in a 384-well plate (24 columns×16 wells/rows). An Echo®550 Liquid Handler (Labcyte) was used to prepare various intermediate concentrations of compounds of the present disclosure in 100% DMSO. From the intermediate concentrations, a range of concentrations (from […] to 25 μM corresponding to volumes up to 105 nL) were prepared and ejected into a final assay plate to be used to create individual dose response curves for each of the subject compounds. To a separate column within the assay plate, 105 nL of DMSO in each well was used to establish a maximum assay signal. Additionally, 105 nL of 100 μM SD-208, a selective TGF-βR1 inhibitor (Catalog #S7624, Selleck Chemicals), was used in another column of wells to establish a minimal assay signal.
With a multidrop dispenser, 8 μL of enzyme mixture (1.25× final) was added to each well. […] The plate was then sealed with an adhesive seal and allowed to equilibrate for 60 minutes at room temperature.
Next, 2 μL of 125 μM ATP (5×final, 125 μM ATP prepared in assay buffer with 2 mM DTT) was added to the incubated mixtures, covered with a MicroClime® Environmental Lid (Product No. LLS-0310, Labcyte) and immediately transferred to 37° C. The reactions were allowed to proceed at 37° C. for 60 minutes before terminating with the addition of 10 μL of detection antibody (LANCE® (lanthanide chelate excite) Ultra Europium-anti-phospo-DNA Topoisomerase 2-alpha (Thr1342)) in detection mixture (12 mM EDTA, 4 nM detection antibody prepared in detection buffer (50 mM Tris-HCl, 150 mM NaCl, 0.5% BSA (Fraction V), pH 7.0)) at room temperature. The plate was then read on a Perkin Elmer EnVision Plate Reader using europium specific reader settings with excitation and emission wavelengths set to 320 or 340 nm and 665 nm, respectively.
For dose-response analyses, percent inhibition versus compound concentrations were plotted, and pIC50 values were determined from a 4-parameter robust fit model with GraphPad Prism V5 Software (GraphPad Software, Inc., La Jolla, CA). This model obtains pIC50 values by fitting the sigmoidal dose-response (variable slope) equation to the data. Results were expressed as pIC50 (negative logarithm of IC50) and subsequently converted to pKi (negative logarithm of dissociate constant, Ki) using the Cheng-Prusoff equation. The higher the value of pKi (lower value of Ki), the greater the inhibition of ALK5 activity.

Ki [2]	Structure (SMILES)	IC50 [1]
0.0398 to 0.316 nM	Cc1cccc(-c2nccc(Nc3ccnc(Nc4csc(C(=O)OCCC5CNC5)c4)n3)n2)n1 [Compound 602, 2-(azetidin-3-yl)ethyl 4-[[4-[[2-(6-methyl-2-pyridyl)pyrimidin-4-yl]amino]pyrimidin-2-yl]amino]thiophene-2-carboxylate]	25.1 to 158 nM
0.0398 to 0.316 nM	CNCCNS(=O)(=O)c1ccc(Nc2nccc(Nc3ccnc(-c4cccc(C)n4)n3)n2)cc1 [Compound 427, N-[2-(methylamino)ethyl]-4-[[4-[[2-(6-methyl-2-pyridyl)pyrimidin-4-yl]amino]pyrimidin-2-yl]amino]benzenesulfonamide]	25.1 to 158 nM
0.0398 to 0.316 nM	Cc1cccc(-c2nccc(Nc3ccnc(Nc4ccc(CN5CCN[C@H](CO)C5)cc4)n3)n2)n1 [Compound 463, [(2S)-4-[[4-[[4-[[2-(6-methyl-2-pyridyl)pyrimidin-4-yl]amino]pyrimidin-2-yl]amino]phenyl]methyl]piperazin-2-yl]methanol]	25.1 to 158 nM
0.0398 to 0.316 nM	Cc1cccc(-c2nccc(Nc3ccnc(Nc4ccc(C(=O)OC[C@H]5CCNC5)nc4)n3)n2)n1 [Compound 582, [(3S)-pyrrolidin-3-yl]methyl 5-[[4-[[2-(6-methyl-2-pyridyl)pyrimidin-4-yl]amino]pyrimidin-2-yl]amino]pyridine-2-carboxylate]	25.1 to 158 nM
3.98 to 31.6 nM	Cc1cccc(-c2nccc(Nc3ccnc(Nc4ccc(C(=O)OC5CCNCC5)cn4)n3)n2)n1 [Compound 634, 4-piperidyl 6-[[4-[[2-(6-methyl-2-pyridyl)pyrimidin-4-yl]amino]pyrimidin-2-yl]amino]pyridine-3-carboxylate]	25.1 to 158 nM
3.98 to 31.6 nM	Cc1cccc(-c2nccc(Nc3ccnc(Nc4ccc(N5CCOCC5)cc4F)n3)n2)n1 [Compound 502, N2-(2-fluoro-4-morpholino-phenyl)-N4-[2-(6-methyl-2-pyridyl)pyrimidin-4-yl]pyrimidine-2,4-diamine]	25.1 to 158 nM
0.398 to 3.16 nM	Cc1cccc(-c2nccc(Nc3ccnc(Nc4nc(C(=O)OC[C@@H]5CCNC5)cs4)n3)n2)n1 [Compound 611, [(3R)-pyrrolidin-3-yl]methyl 2-[[4-[[2-(6-methyl-2-pyridyl)pyrimidin-4-yl]amino]pyrimidin-2-yl]amino]thiazole-4-carboxylate]	200 to 1260 nM

Continued, molecule first:

Structure (SMILES)	Ki [2]	IC50 [1]
Cc1cccc(-c2nccc(Nc3ccnc(Nc4ccc(N5CCC(N(C)C)CC5)cc4)n3)n2)n1 [Compound 394, N2-[4-[4-(dimethylamino)-1-piperidyl]phenyl]-N4-[2-(6-methyl-2-pyridyl)pyrimidin-4-yl]pyrimidine-2,4-diamine]	0.0398 to 0.316 nM	200 to 1260 nM
COc1cc(Nc2nccc(Nc3ccnc(-c4cccc(C)n4)n3)n2)ccc1CN1C[C@@H](C)N[C@@H](C)C1 [Compound 335, N2-[3-methoxy-4-[[rac-(3S,5R)-3,5-dimethylpiperazin-1-yl]methyl]phenyl]-N4-[2-(6-methyl-2-pyridyl)pyrimidin-4-yl]pyrimidine-2,4-diamine]	0.0398 to 0.316 nM	25.1 to 158 nM
Cc1cccc(-c2nccc(Nc3ccnc(Nc4ccc(S(=O)(=O)N5CCN(C(=O)NC(C)C)CC5)cc4)n3)n2)n1 [Compound 107, N-isopropyl-4-[4-[[4-[[2-(6-methyl-2-pyridyl)pyrimidin-4-yl]amino]pyrimidin-2-yl]amino]phenyl]sulfonyl-piperazine-1-carboxamide]	0.398 to 3.16 nM	200 to 1260 nM
COC(=O)C1CN(CCNc2ccc(Nc3nccc(Nc4ccnc(-c5cccc(C)n5)n4)n3)cc2)CCN1C(C)C (stereo not drawn) [Compound 171, methyl 1-isopropyl-4-[2-[4-[[4-[[2-(6-methyl-2-pyridyl)pyrimidin-4-yl]amino]pyrimidin-2-yl]amino]anilino]ethyl] piperazine-2-carboxylate]	0.398 to 3.16 nM	25.1 to 158 nM
Cc1cccc(-c2nccc(Nc3ccnc(Nc4ccc(N5CCC(N)C5)cc4)n3)n2)n1 (stereo not drawn) [Compound 289, N2-[4-(3-aminopyrrolidin-1-yl)phenyl]-N4-[2-(6-methyl-2-pyridyl)pyrimidin-4-yl]pyrimidine-2,4-diamine]	0.0398 to 0.316 nM	25.1 to 158 nM
Cc1ccc(O)cc1-c1nccc(Nc2ccnc(Nc3ccc(N4CCC(N5CCN(C)CC5)CC4)cc3)n2)n1 [Compound 255, 4-methyl-3-(4-((2-((4-(4-(4-methylpiperazin-1-yl)piperidin-1-yl)phenyl)amino)pyrimidin-4-yl)amino)pyrimidin-2-yl)phenol]	0.398 to 3.16 nM	25.1 to 158 nM
Cc1cccc(-c2nccc(Nc3ccnc(Nc4cccc(C(=O)N5CCN(C(C)C)CC5)c4)n3)n2)n1 [Compound 292, (4-isopropylpiperazin-1-yl)-[3-[[4-[[2-(6-methyl-2-pyridyl)pyrimidin-4-yl]amino]pyrimidin-2-yl]amino]phenyl]methanone]	0.398 to 3.16 nM	25.1 to 158 nM
Cc1cccc(-c2nccc(Nc3ccnc(Nc4ccc(N5CCNCC5)c(CC(=O)OCC(C)C)c4)n3)n2)n1 [Compound 205, isobutyl 2-[5-[[4-[[2-(6-methyl-2-pyridyl)pyrimidin-4-yl]amino]pyrimidin-2-yl]amino]-2-piperazin-1-yl-phenyl]acetate]	0.0398 to 0.316 nM	25.1 to 158 nM
Cc1cccc(-c2nccc(Nc3ccnc(Nc4ccc(N5CCCC(C(=O)OC6CNC6)C5)cc4)n3)n2)n1 (stereo not drawn) [Compound 173, azetidin-3-yl 1-[4-[[4-[[2-(6-methyl-2-pyridyl)pyrimidin-4-yl]amino]pyrimidin-2-yl]amino]phenyl]piperidine-3-carboxylate]	0.0398 to 0.316 nM	25.1 to 158 nM
Cc1cccc(-c2nccc(Nc3ccnc(Nc4ccc(S(=O)(=O)N(C)C5CCNCC5)cc4)n3)n2)n1 [Compound 122, N-methyl-4-[[4-[[2-(6-methyl-2-pyridyl)pyrimidin-4-yl]amino]pyrimidin-2-yl]amino]-N-(4-piperidyl)benzenesulfonamide]	0.0398 to 0.316 nM	25.1 to 158 nM
Cc1cccc(-c2nccc(Nc3ccnc(Nc4ccc(CN5C6CCC5CNC6)cc4)n3)n2)n1 [Compound 197, N2-[4-(3,8-diazabicyclo[3.2.1]octan-8-ylmethyl)phenyl]-N4-[2-(6-methyl-2-pyridyl)pyrimidin-4-yl]pyrimidine-2,4-diamine]	0.0398 to 0.316 nM	25.1 to 158 nM
